Laboratory results as given in US6716819B2, “Use of xylitol to reduce ionic strength and activate endogenous antimicrobials for prevention and treatment of infections” (University of Iowa Research Foundation, priority 2000, dated 2004).

Columns and labels:
CF epithelia = experiment: Transepithelial electrical properties in Ussing chambers; type: cell-based, human; conditions: 10 μM apical, n=9
Excerpt: (§1) For measurement of transepithelial electrical properties, a few epithelia from each culture preparation were mounted in Ussing chambers and studied as previously described (Zabner, J., J. J. Smith, P. H. Karp, J. H. Widdicombe, and M. J. Welsh. 1998. Loss of CFTR chloride channels alters salt absorption by cystic fibrosis airway epithelia in vitro. Mol. Cell. 2:397-403). Transepithelial resistance was 588±33 Ω·cm^2 (n=9) for non-CF and 493±24 Ω·cm^2 (n=9) for CF epithelia. The decrease in current after apical addition of 10 μM amiloride was 26.9±1.0 μA·cm^−2·hr^−1 (n=9) for non-CF epithelia and 20.0±1.3 μA·cm^−2·hr^−1 (n=9) for CF epithelia.

non-CF epithelia = experiment: as above; type: cell-based, human; conditions: 10 μM apical, n=9
Excerpt: as §1

P. aeruginosa = experiment: Growth in carbon-starved M9 media (O.D.); type: cell-based; conditions: M9 media supplemented at 100 mM
Protocol: FIGS. 5(A-G). […] A, B and C. Growth of P. aeruginosa (A), S. aureus, (B), and coagulase-negative Staphylococcus (C) were measured as O. D. M9 media alone is indicated by open triangle. Xylitol (closed circle), or succinate, mannitol, or sucrose (open circles), were added to M9 media at 100 mM as indicated. D. Nasal swabs were collected and cultured for 3 days in Lauria-Bertani media (open circles), in minimal M9 media (open squares), or in M9 media supplemented with 100 mM xylitol (closed circles). E, F and G. P. aeruginosa (E), S. aureus (F), and coagulase-negative Staphylococcus (G) were cultured in Lauria-Bertani media alone (open triangles), Lauria-Bertani media with 100 mM xylitol (closed circles), and Lauria-Bertani media containing tobramycin or levofloxacin (open circles).
To test the effect of xylitol on growth of different airway pathogens in a carbon-starved media, P. aeruginosa, S. aureus, and coagulase-negative Staphylococcus were grown overnight in Lauria-Bertani medium. The bacteria were then centrifuged and resuspended in M9 media containing either 100 mM succinate, mannitol, or sucrose, respectively, and grown overnight at 37° C. The bacteria were centrifuged and resuspended in M9 media alone. M9 media containing 100 mM xylitol, or 100 mM of the indicated metabolizable sugar, as positive control. The optical density (O.D.) was measured after 0, 1, 2, and 4 hours at 600 nm on a Beckman DU640 Spectrophotometer (Schaumburg, Ill.). To test the antibiotic effect of xylitol, P. aeruginosa, S. aureus, and coagulase-negative Staphylococcus were grown overnight in Lauria-Bertani medium. The bacteria were then centrifuged and resuspended in Lauria-Bertani media with and without 100 mM xylitol. As a positive control, antibiotics with specific activity to each of the bacteria were added to the media (40 μg/ml tobramycin or 40 μg/ml levofloxacin).

N=C(N)NC(=O)c1nc(Cl)c(N)nc1N [amiloride]
decrease in current after apical addition (CF epithelia): 20.0±1.3 μA·cm^−2·hr^−1 | decrease in current after apical addition (non-CF epithelia): 26.9±1.0 μA·cm^−2·hr^−1

O=C(O)CCC(=O)O [succinate, reference compound]
growth of P. aeruginosa (P. aeruginosa): allowed bacterial growth
